Experimental data published in PMC5041077, “Metabolic profile and safety of piperlongumine” (Scientific Reports, 2016).

Key:
CYP1A2 = CYP1A2 (Homo sapiens, UniProt P05177); assay: IC50 assay, phenacetin O-deethylation in HLM
[1] = Piperlongumine plasma protein binding (ultrafiltration); assay type: in vitro ADME
Description: Piperlongumine-protein binding. An in vitro study with a microsomal and plasma protein was carried out using a concentration of PPL approximately corresponding to its S50 (n = 3). The plasma protein binding was evaluated to predict the in vivo clearance, using a plasma protein concentration of 42 mg/mL. The samples were incubated with pooled human liver microsomes at 37 °C as described in section above. The same V0 conditions obtained (protein concentration and incubation time) were applied in this study, but in the absence of the cofactor NADPH. Furthermore, a control sample without protein was analyzed simultaneously for comparison purposes. These mixtures were added to the centrifugal filter device (Microcon YM-30, 30,000 molecular weight cut-off; Millipore Corporation, Bedford, MA, USA) and centrifuged at 21800 x g for 30 min at 37 °C (Hitachi CF16RXII, Himac, Tokyo, Japan). The ultra-filtrate was directly assayed by high-performance liquid chromatography at the conditions previously described.

CYP3A4 = CYP3A4 (Homo sapiens, UniProt P08684); assay: biochemical
Sequence of CYP3A4 (P08684 whole entry): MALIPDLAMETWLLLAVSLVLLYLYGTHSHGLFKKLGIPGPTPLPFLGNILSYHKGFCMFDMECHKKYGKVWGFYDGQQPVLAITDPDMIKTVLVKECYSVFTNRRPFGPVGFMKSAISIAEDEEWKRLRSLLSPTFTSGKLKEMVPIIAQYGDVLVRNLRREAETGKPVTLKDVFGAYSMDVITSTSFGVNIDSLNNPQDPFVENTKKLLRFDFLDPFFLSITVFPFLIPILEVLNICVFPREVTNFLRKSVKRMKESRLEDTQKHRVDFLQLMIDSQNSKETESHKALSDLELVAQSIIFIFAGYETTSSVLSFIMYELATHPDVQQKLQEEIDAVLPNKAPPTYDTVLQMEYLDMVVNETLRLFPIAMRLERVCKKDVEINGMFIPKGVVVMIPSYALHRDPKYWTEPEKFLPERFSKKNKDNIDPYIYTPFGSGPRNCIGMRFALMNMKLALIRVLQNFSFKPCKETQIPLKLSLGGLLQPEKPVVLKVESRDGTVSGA

[2] = Piperlongumine stability assay (microsomal medium); assay type: physicochemical
Description: Method validation protocol and results. The quantification method of PPL was validated by following the European Medicines Agency (EMA) guidelines. Analytical curves were obtained by spiking 200 µL aliquots of HLM with PPL 0.38; 0.95; 9.45; 141.80; 236.34 and 283.61 µM. The linearity was carried out and assessed in triplicate. The linearity was determined using the correlation coefficient (r), the F test for lack-of-fit and a p value of 0.05. The MINITAB Release version 14.1 software (State College, PA, USA) was used to conduct the statistical analysis (Table S1). Carbamazepine (2120 µM) was used as internal standard, and the ratio of the peak area of the PPL and carbamazepine was defined as the analytical response. The lower limit of quantification (LLQ) was obtained by spiking the incubation mixture samples at a concentration of 0.38 µM. The selectivity of the method was assured by analyzing the standard solutions of reagents and the blank HLM (Fig. S1). The absolute recovery (%) was performed at three different concentrations: 0.95, 141.8, 212.7 µM. The recovery was expressed as the percentage of the extracted amount, by comparing the areas from the samples subjected to the extraction procedure with the areas from the analysis of standard solutions of the same concentration that were not submitted to the extraction process. To assess the within-day precision and accuracy, replicate analyzes (n = 5) of 200 µL of microsomal medium spiked at concentrations 0.38, 0.95; 141.8 and 236.3 µM was analyzed in a single day. For between-day assays, samples at the same concentration described above were analyzed for three consecutive days (n = 5) (Table S2). These samples were quantified using a new calibration curve prepared daily. The stability assays were performed to evaluate the PPL stability at three different conditions: (i) at room temperature (25 °C ± 2 °C, for 4 h), (ii) at incubation conditions (37 °C, for 60 min) and (iv) in the autosampler equipment (25 °C ± 2 °C, for 24 h). These assays aimed to evaluate the stability of PPL during sample preparation, during the metabolism reaction and during the analysis, respectively. […] The peak area obtained from the stability assays was quantified using a fresh analytical curve prepared daily. The samples were considered stable when the relative error (RE, %) from the nominal concentration was within ±15% and when the relative standard deviation (RSD%) was below 15% (Table S3).

human liver microsomes = assay: In vitro kinetic study of PPL metabolism (substrate depletion) in human liver microsomes; assay type: in vitro ADME
Description: The in vitro kinetic study was performed setting the incubation conditions through the maintenance of initial velocity (V0); 0.45 mg/mL microsomal protein and 16 min time incubation were selected and the substrate concentration was ranged from 0.38 to 283.6 μM. The substrate depletion was quantified employing an analytical validated method (Tables S1, S2 and S3 and Fig. S1-Supplementary Information).
The metabolism was evaluated by measuring the rate of disappearance of the PPL peak. The incubations were performed in triplicate using 10 mL amber tubes. The metabolism medium consisted of substrate, a NADPH regeneration system solution A (1.3 mM NADP^+ and 3.3 mM glucose-6-phosphate), a NADPH regeneration system solution B (0.4 U/mL glucose-6-phosphate dehydrogenase), HLM and a potassium phosphate buffer pH 7.4 (100 mM) in a total volume of 200 μL. This microsomal medium was incubated in a shaking water bath at 37 °C. After pre-warming for 5 min at 37 °C to favor the formation of NADPH from the solutions A and B, the reaction was initiated by the addition of the HLM. To determine the enzymatic kinetic parameters, the linear conditions for microsomal protein concentration and for incubation time were optimized. The microsomal protein concentration was evaluated from 0.1 to 1.5 mg of protein per mL (n = 3), and the incubation time was varied from 0 to 40 min (n = 3). The linear range was obtained from these parameters and used to perform the substrate variation concentration at V0 conditions. The reactions were stopped by the addition of 200 μL of cold acetonitrile, gently agitated for 20 s and then centrifuged for 5 min at 2860x g. Finally, aliquots of the supernatant were removed and injected into the chromatographic system. Control incubations were performed in the absence of the cofactor solution and in the absence of the HLM. The difference between ‘with’ and ‘without’ NADPH was attributed to CYP450-mediated metabolism.
The kinetic parameters were calculated from nonlinear regression using GraphPad Prism Version 3.03 (San Diego, CA, USA). The Intrinsic Clearance (CLint) was obtained considering the Hill coefficient. The Unbounded Intrinsic Clearance (CLuint), Predicted in vivo Clearance (CL) and Hepatic Clearance (CLH) were determined according to Subramarian and Tracy[15] and Austin et al.[17]. Hepatic extraction ratio was calculated according to Kashuba et al.[21]. Dose-dependent inhibition parameters were determined employing SigmaPlot version 12.0 (Chicago, IL, USA). The Lineweaver-Burk plot was used to determine the inhibition profile. The second plot of slopes from Lineweaver-Burk plot versus PPL concentrations was utilized to calculate the Ki. The parameters kinact and KI in time-dependent inhibition were calculated employing GraphPad Prism Version 3.03.

Sequence of CYP1A2 (P05177 whole entry): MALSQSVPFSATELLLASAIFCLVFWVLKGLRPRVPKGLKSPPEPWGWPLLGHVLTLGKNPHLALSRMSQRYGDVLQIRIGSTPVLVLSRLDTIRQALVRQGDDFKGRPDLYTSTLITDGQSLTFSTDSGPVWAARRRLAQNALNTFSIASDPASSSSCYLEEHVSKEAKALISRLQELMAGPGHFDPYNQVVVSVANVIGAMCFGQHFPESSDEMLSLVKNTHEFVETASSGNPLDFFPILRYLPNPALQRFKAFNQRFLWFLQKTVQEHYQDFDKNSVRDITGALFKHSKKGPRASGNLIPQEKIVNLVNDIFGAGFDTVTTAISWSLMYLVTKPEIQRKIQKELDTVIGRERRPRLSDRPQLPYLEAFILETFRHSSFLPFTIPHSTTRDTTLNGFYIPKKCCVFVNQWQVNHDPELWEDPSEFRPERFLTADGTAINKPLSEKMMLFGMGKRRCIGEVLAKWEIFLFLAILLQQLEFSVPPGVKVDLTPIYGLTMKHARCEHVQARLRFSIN

Question: For `COc1cc(/C=C/C(=O)N2CCC=CC2=O)cc(OC)c1OC` [PPL, Piperlongumine], which IC50 (CYP1A2) is on record?
Answer: Its IC50 is 7.2 µM.

Question: What about the plasma binding ([1]; PPL approx. S50, plasma protein 42 mg/mL) of the same compound?
Answer: The plasma binding was 93%.

Question: What about the fraction unbound at 16 min, 127.7 μM ([1]; plasma protein (42 mg/mL), PPL 127.70 μM, read-out: fuplasma (free fraction of the compound in plasma)) of the same compound?
Answer: The fraction unbound at 16 min, 127.7 μM was 0.07.

Question: And the IC50 (CYP3A4)?
Answer: The IC50 was > 100 µM.

Question: And the “stability, RE (%) from nominal concentration” value (from here on “stability, RE (%)”) ([2]; 37°C (1h), PPL 0.95 µM)?
Answer: The value was 0.6%.

Question: What about the “stability, RE (%)” value ([2]; 37°C (1h), PPL 212.7 µM) of the same compound?
Answer: The value was 0.0%.

Question: What about the “stability, RE (%)” value ([2]; Auto injector (24 hs), PPL 0.95 µM) of the same compound?
Answer: Its value is -4.0%.

Question: What about the “stability, RE (%)” value ([2]; Auto injector (24 hs), PPL 212.7 µM) of the same compound?
Answer: The value was 0.0%.

Question: What about the “stability, RE (%)” value ([2]; Room temperature (4 hs), PPL 0.95 µM) of the same compound?
Answer: Its value is 0.6%.

Question: And the “stability, RE (%)” value ([2]; Room temperature (4 hs), PPL 212.7 µM)?
Answer: The value was 6.0%.

Question: What about the Hill coefficient (human liver microsomes; HLM 0.45 mg/mL, 16 min) of the same compound?
Answer: Its Hill coefficient is 3.0.

Question: What about the S50 (human liver microsomes; HLM 0.45 mg/mL, 16 min, sigmoidal profile) of the same compound?
Answer: The S50 was 127.7 µM.

Question: And the Vmax (human liver microsomes; HLM 0.45 mg/mL, 16 min, substrate 0.38 to 283.6 μM, sigmoidal profile)?
Answer: The Vmax was 5.5 ± 0.5 nmol/mg protein/min.

Question: And the “S50 in human relative to the value observed in rats” value (human liver microsomes; human vs rat liver microsomes, rat value ref 19)?
Answer: The value was 2.7 times.
